Patent publication US8618046B2, “Treatment of atherosclerosis with cholesterol ester transport protein mimotopes” (Affiris AG, priority 2007, dated 2013)
Entries after “also recorded” stand apart in the source; their conditions may differ. Where no end group is shown, it is not given here.

How the values were obtained:
recombinant GST-CETP = experiment: Anti-protein ELISA of sera of immunised mice, plates coated with recombinant GST-CETP; assay type: in vivo
Source text: (§1) FIGS. 12a and 12b show the in vivo induction of CETP specific antibodies by the administration of the mimotopes of the invention. Titers to p4073 and its correlation to titers to CETP of selected groups (which show high titers against p4073): gr.4, gr.9, gr.10, gr.14, gr.16-20/gr.1 (KLH), gr.2 (original epitope) as controls. Coating: recombinant GST-CETP or purified rabbit CETP, respectively:
(§2) Sera of each group (5 Balb/c mice each) were combined, diluted 1:100 and tested on ELISA plates coated with recombinant GST-CETP or rabbit CETP, respectively. Detection of bound antibodies was with algG.
(§3) Titers to injected peptides as well as to the original CETP epitope were determined. In addition, for selected sera also immune response to CETP protein was measured (Results see FIGS. 7a to 7d and FIGS. 19a to 19e).

original epitope (p4073) = experiment: Titer to the original CETP epitope in sera of immunised animals (peptide ELISA); assay type: in vivo, mouse; conditions: for titer, original epitope-BSA: FIG. 11, Balb/c mice, 30 μg peptide, Alum as adjuvant, S3, coating 1 μM p4073-BSA, detection αIgG; for antibody response to the original CETP epitope (in words): coupled to KLH, mice and rabbits
Protocol: (§4) Balb/c mice/30 μg Peptide, 2 injections in 2 week intervals. S3=2 weeks after 3rd injection. Alum as adjuvant. Titers against original epitope (p4073) induced by injection of mimotopes. Well coating: 50 μl of 1 μM p4073-BSA or 1 μg/ml activated KLH. Detection: αIgG:
(§5) Inhibiting as well as some non-inhibiting peptides were coupled to KLH and injected into mice (wildtype or CETP-transgenic mice; subcutaneously into the flank or intra-dermaly into the ears) or rabbits (subcutaneously into the flank) together with an appropriate adjuvant (aluminium hydroxide and Gerbu 100 for mice and aluminium hydroxide or CFA/IFA for rabbits).
as §3
(§6) Subcutaneous injections in the flank were performed in week 1, week 3 and week 7 with 30 μg peptide-KLH per mouse. Intradermal injections in the ear were performed in week 1, week 3 and week 6 with 10 μg peptide-KLH per mouse. Sera were taken 2 weeks after the 3rd injection. Vaccine formulation with Alum (always 1 mg per mouse): up to 250 μl, injected into one flank. The Alum formulation with 1 ml per mouse (500 μl into each flank) was in 1×PBS as buffer.
Vaccine formulation with Gerbu Adjuvant 100 (Gerbu Cat. Nr. #3100; always 50 μl adjuvant per mouse): 200 μl, 100 μl injected into each flank comprising 1×HEPES as buffer. […]

injected peptide-BSA = experiment: Titer to the injected peptide in sera of immunised animals (peptide ELISA); assay type: in vivo, mouse; conditions: FIG. 11; Balb/c mice, 30 μg peptide, Alum as adjuvant; S3 = 2 weeks after 3rd injection; detection αIgG
Protocol: Balb/c mice/30 μg Peptide, 2 injections in 2 week intervals. S3=2 weeks after 3rd injection. Alum as adjuvant. […] Detection: αIgG:
as §5, §3
as §6, with “buffer. […]” for “buffer.”

rabbit CETP = experiment: Anti-protein ELISA of sera of immunised mice, plates coated with purified rabbit CETP; assay type: in vivo, mouse
Source text: as §1, §2, §3

irrelevant peptide-BSA = experiment: Titer to irrelevant peptide in sera of immunised animals (peptide ELISA); assay type: in vivo, mouse; conditions: for titer, irrelevant peptide-BSA: FIG. 11, Balb/c mice, 30 μg peptide, Alum as adjuvant, S3, detection αIgG; for titer, p irrelevant: Table 1, mice, sera 2 weeks after 3rd injection
Protocol: as §4, §6
Vaccine formulation with Gerbu Adjuvant 100 (Gerbu Cat. Nr. #3100; always 50 μl adjuvant per mouse): 200 μl, 100 μl injected into each flank comprising 1×HEPES as buffer.
Female Balb/c mice, five mice per group, were subcutaneously immunized with 30 μg peptide coupled to KLH. Control groups were administered KLH or C-[…] (SEQ ID NO. 147). As adjuvant alum was used. […] The in vitro ELISA assay to determine the antibody titer was performed with pooled sera after two vaccinations in a two week interval (S2; see FIGS. 7a to 7d). The wells of the ELISA plate were coated with KLH (positive control), mimotope-BSA conjugate, C-[…] (SEQ ID NO. 147) and a irrelevant peptide-BSA conjugate (negative control). The detection was performed with anti-mouse IgG.

CETP = CETP activity assay: human serum mixed with serum from vaccinated wild-type mice; assay type: biochemical; conditions: for inhibition of CETP activity in human serum (in words): FIGS. 15 to 17 and remarks in the example set-up table, sera of vaccinated mice; for CETP activity after addition of serum from vaccinated mice: FIG. 14, 0.6 μl human serum
[1] = FIG. 12a, sera of immunised mice
[2] = FIG. 12a, sera of immunised mice, purified rabbit CETP
[3] = FIG. 12b, sera of immunised mice
[4] = FIG. 12b, sera of immunised mice, purified rabbit CETP
[5] = FIG. 13, combined sera of 5 Balb/c mice, diluted 1:100

Substance	ELISA signal, recombinant GST-CETP (recombinant GST-CETP; [1])	titer, original epitope-BSA (original epitope (p4073))	titer, injected peptide-BSA (injected peptide-BSA)	ELISA signal, rabbit CETP (rabbit CETP; [2])	titer, irrelevant peptide-BSA (irrelevant peptide-BSA)	ELISA signal, recombinant GST-CETP (recombinant GST-CETP; [3])	ELISA signal, rabbit CETP (rabbit CETP; [4])	further results
p4359-KLH: C-FGFPAHIIIDWLQSLS coupled to KLH (CFGFPAHIIIDWLQSLS; also: coupled to KLH)	0.79	5.340	8.540	0.54	10			
p4324-KLH: C-FGFPSHLIIDWAQSLS coupled to KLH (CFGFPSHLIIDWAQSLS; also: coupled to KLH)	0.58	7.600	12.570	0.28	10			
p4366-KLH: C-FGFPSHLIIDWSQSLS coupled to KLH (CFGFPSHLIIDWSQSLS; also: coupled to KLH)		3.600	4.700		10	0.4	0.65	
p4347-KLH: C-FGFPAHVSIDWLQLLS coupled to KLH (CFGFPAHVSIDWLQLLS; also: coupled to KLH)	0.35	9.160	12.000	0.2	10			
p4340-KLH: C-PGFPAHVSIDWLQSLS coupled to KLH (CPGFPAHVSIDWLQSLS; also: coupled to KLH)	0.49	15.640	18.100	0.21	10			
p4344-KLH: C-FDFPAHVSIDWLQSLS coupled to KLH (CFDFPAHVSIDWLQSLS; also: coupled to KLH)		3.580	12.200		10	0.35	0.43	
p4345-KLH: C-FATPSHLIIDWLQSLS coupled to KLH (CFATPSHLIIDWLQSLS; also: coupled to KLH)		1.270	8.380		10	0.39	0.46	
p4325-KLH: C-FGFPSHLIIDWLQSLS coupled to KLH (CFGFPSHLIIDWLQSLS; also: coupled to KLH)		1.820	2.930		10	0.59	0.85	inhibition of CETP activity in human serum (in words) (CETP; listed as p4325-KLH/Alum): inhibits significantly CETP activity; also recorded: C-31 and C-33; sera inhibiting
p4352-KLH: C-FGFPAHVSIDWLQSIS coupled to KLH (CFGFPAHVSIDWLQSIS; also: coupled to KLH)	0.48	12.070	19.680	0.28	10			
p4362-KLH/Alum: C-FGFPAHVYIDWLQSLS coupled to KLH, Alum (CFGFPAHVYIDWLQSLS; also: coupled to KLH)								ELISA signal, recombinant GST-CETP (recombinant GST-CETP; [5]): 0.86; inhibition of CETP activity in human serum (in words) (CETP): inhibits significantly CETP activity; ELISA signal, rabbit CETP (rabbit CETP; [5]): 0.94
p4361-KLH: C-FGFPAHVFIDWLQSLS coupled to KLH (CFGFPAHVFIDWLQSLS; also: coupled to KLH)	1.64	9.530	17.940	1.51	10			CETP activity after addition of serum from vaccinated mice (CETP; 0.2 μl mouse serum): reduces significantly said activity; CETP activity after addition of serum from vaccinated mice (CETP; 1.2 μl and 0.6 μl mouse serum): completely inhibits CETP activity; inhibition of CETP activity in human serum (in words) (CETP): inhibits significantly CETP activity
p4353-KLH: C-FGFPAHVSIDWLQSLT coupled to KLH (CFGFPAHVSIDWLQSLT; also: coupled to KLH)	0.57	8.650	11.200	0.39	10			
p4351-KLH: C-FGFPAHVSIDWLQYLS coupled to KLH (CFGFPAHVSIDWLQYLS; also: coupled to KLH)		2.400	2.950		10	0.54	0.59	
C-SANPRDFLETLF (N-terminal Cys; CETP mimotope) [P12-19]								antibody response to the original CETP epitope (in words) (original epitope (p4073)): induced an immune response to the original CETP epitope in wt mice and in rabbits
p4227-KLH: P12-19; C-SANPRDFLETLF coupled to KLH (CSANPRDFLETLF; also: coupled to KLH)								titer, P4073 (FGFPEHLLVDFLQSLS) (original epitope (p4073); Table 1, KLH/Alum i.d. (10 μg peptide), mice, sera 2 weeks after 3rd injection): no titer; titer, p irrelevant (irrelevant peptide-BSA; Alum s.c. (30 μg peptide)): no titer; titer, p irrelevant (irrelevant peptide-BSA; KLH/Alum i.d. (10 μg peptide)): no titer
p4358-KLH: C-FGFPAHISIDWLQSLS coupled to KLH (CFGFPAHISIDWLQSLS; also: coupled to KLH)	0.68	12.940	16.500	0.58	10			
p4341-KLH: C-WGFPAHVSIDWLQSLS coupled to KLH (CWGFPAHVSIDWLQSLS; also: coupled to KLH)	0.39	5.500	10.350	0.18	10			
p4342-KLH: C-FSFPAHVSIDWLQSLS coupled to KLH (CFSFPAHVSIDWLQSLS; also: coupled to KLH)		1.610	4.620		10	0.38	0.41	
C-RMFPESFLDTLW (N-terminal Cys; CETP mimotope) [P12-21]								antibody response to the original CETP epitope (in words) (original epitope (p4073)): induced an immune response to the original CETP epitope in wt mice and in rabbits
C-TIYDSFLDSLAS (N-terminal Cys; CETP mimotope) [P12-37]								antibody response to the original CETP epitope (in words) (original epitope (p4073)): did not induce an antibody response to the original epitope
p4343-KLH: C-FYFPAHVSIDWLQSLS coupled to KLH (CFYFPAHVSIDWLQSLS; also: coupled to KLH)		2.900	5.580		10	0.61	1.05	inhibition of CETP activity in human serum (in words) (CETP): C-33: recogn. protein/not in-
